Experiments:
Assay type in all cases: in vivo, Wistar rats
[1] = tested on: nitrites and nitrates (NOx-); assay: Measurement of nitrates/nitrites (NOx-) in brain regions after the morphine abstinence experiment
Experimental: (§1) After the above experiments the rat brains were isolated and immediately placed in the ice cold 0.9% solution of sodium chloride. After cooling the following structures were isolated from the brain: cerebral cortex, hippocampus, mesencephalon, striatum, brainstem, hypothalamus and cerebellum. The isolated tissue was homogenized in a Potter S homogenizer for 3 minutes at 1500 rpm in 4-5 volumes of 20 mM HEPES (pH 7.5) at 4° C. The supernatants were centrifuged for 30 minutes at 11000 g at 4° C., and aliquots of the obtained supernatants were taken for determining nitrates and nitrites (NOx-), while the remaining part was mixed with cooled 20 mM of HEPES (pH 7.5), containing 0.5 mM ethylenediamine tetraacetate (EDTA), 1 mM dithiotreitol (DDT), 1 mM phenylmethylsulfonyl fluoride (PMSF), aprotinine and leupeptine at a concentration of 5 μg/ml, this mixture being used for determining nitric oxide synthase (NOS) activity.
To estimate the intensity of metabolism of nitric oxide in rats, quantitative determination of stable metabolites of nitrogen oxide-nitrites and nitrates (NOx-) was performed using a fluorometric method by fluorescence of naphthotriazole, a product of reaction of 2,3- diaminonaphthalene (DAN) and nitrite in an acidic medium (Misko T. R., Schilling R. J., Salvemini D. et al. A fluorometric assay for the measurement of nitrite in biological samples. Anal. Biochem., 1993, V. 214, p.11-16) with modifications (Lei B., Adachi N., Nagaro T., Arai T. Measurement of total nitric oxide metabolite (NO (x) (-)) levels in vivo. Brain. Res. Protoc., 1999, V. 4, p. 415-419).
The supernatants of brain deproteinized at 100° C. were placed in a nitrite recovery system containing 0.125 unit/ml of nitrate reductase, 25 μM NADPH and 25 μM FAD prepared in 20 mM Tris-HCl buffer pH 7.6 and incubated for 30 minutes at 37° C. For oxidation of NADPH a lactate dehydrogenase (LDH)/pyruvate system was used. Then 316.0 μM DAN solution in 0.62 M HCl was added and the mixture was incubated for 10 minutes in dark. For stabilization of fluorescence of the formed naphthotriazole, 280 mM NaOH was added. The fluorescence intensity was measured using spectrofluorometer Hitachi F-3000 at a wavelength of excitation 365 nm and emission 405 nm. To calculate the concentration of NOx- in the brain a standard solution of sodium nitrate was used. The concentration of NOx- was expressed in nmol/mg of protein.
(§2) The content of protein in the samples was determined by the Bradford method (Bradford M. M. A rapid and sensitive method for quantitation of microgram quantities of protein using the principle of protein binding . Anal. Biochem., 1976, V. 72, p. 248-254) using Coumassi dye. The statistical analysis was performed using methods appropriate for respective experiments. The data are expressed as mean±standard error of mean.

[2] = tested on: nitric oxide synthase (NOS); assay: Nitric oxide synthase activity in brain regions, radiometric [3H]L-citrulline method; conditions: 3 x 20 mg/kg intramuscularly
Experimental: as §1
The activity of nitric oxide synthase (NOS) was determined using a radiometric method by the rate of L-citrulline accumulation in a reaction of [^3H] L-arginine oxidation catalyzed by NOS (Bredt M., Snyder S. Nitric oxide mediates glutamate-linked enhancement of cGMP levels in the cerebellum. Proc. Natl. Acad. Sci., USA, 1989, V.86, p.9030-9033). The formation of L-citrulline in this reaction is equivalent to a biosynthesis of nitric oxide.
The reaction was initiated by adding brain supernatant in the reaction medium containing 2 μCi/ml of [3H] L-arginine, 20 mM HEPES (pH 7.4), 0.2 mM CaCl2, 5 μM FAD, 5 μM FMN, 1 mM NADPH, 50 μM of BH4. After 15-60 minutes of incubation at 37° C. a suspension of Dowex 50WX8-400 (Na^+-form), which sorbs unreacted [^3H]L-arginine, but not [^3H] L-citrulline was added to the samples. After the sorption the radioactivity of the samples was determined on a scintillation counter SL-4000 (“Intertechnique”). The activity of Ca^2+-dependent and Ca^2+-independent NOS isoforms was determined by the difference of rates of [^3H]L-citrulline formation in three parallel samples containing 2 mM EDTA (Ca^2+ chelator), 2 mM EDTA+2 mM L-NAME (inhibitor all NOS isoforms) or without inhibitors. The enzyme activity was expressed in rnol [^3H]L-citrulline acumulated per 1 minute on 1 mg of supernatant protein.
as §2

[3] = tested on: physical dependence from morphine (morphine abstinence); assay: Morphine abstinence syndrome, signs scored in the open field test
Experimental: Thirty six hours after the last injection selected motor and autonomice parameters which are specific symptoms of abstinence were monitored in the <<open field>> test (an arena with a diameter of 120 cm and wall height of 40 cm).
Med., 2002, V.29, p.1-6.). The observable signs were recorded quantitatively (if it was possible) with further assignment of an index to each sign (depending on the specific feature of the sign) and calculation of the sum of scores. The expression of the abstinence syndrome was presented as a sum of scores. The results were processed using nonparametric statistical analysis based on the Mann-Whitney test.

[4] = Groups Nos. 3-14, compound without morphine, 3 x 20 mg/kg intramuscularly, one value for all 12 compounds
[5] = Morphine + compound, 3 x 20 mg/kg intramuscularly, one value for the three compounds
[6] = Groups Nos. 3-14, compound without morphine, one value for all 12 compounds
[7] = Morphine + compound, one value for the three compounds
[8] = Morphine − (morphine + compound), compound 3 x 20 mg/kg intramuscularly, one value for the three compounds
[9] = Control − morphine, open field, 36 h after last morphine injection

Compound: O=c1[nH][nH]c(=O)c2nccnc12.[Li] [Compound 26, lithium salt of pyrazino[2,3-d]-6H-pyridazine-5,8-dione]
- Nitrites, brainstem [1, 4]: 6.31 ± 0.58 nmol/mg of protein
- Nitrites, cerebellum [1, 4]: 6.66 ± 0.63 nmol/mg of protein
- Nitrites, cerebral cortex [1, 4]: 4.31 ± 0.37 nmol/mg of protein
- Nitrites, hippocampus [1, 4]: 6.47 ± 0.72 nmol/mg of protein
- Nitrites, hypothalamus [1, 4]: 6.77 ± 0.83 nmol/mg of protein
- Nitrites, midbrain [1, 4]: 6.65 ± 0.70 nmol/mg of protein
- Nitrites, striatum [1, 4]: 6.11 ± 0.29 nmol/mg of protein
- Nitrites, brainstem [1, 5]: 7.07 ± 0.85 nmol/mg of protein
- Nitrites, cerebellum [1, 5]: 5.76 ± 0.49 nmol/mg of protein
- Nitrites, cerebral cortex [1, 5]: 4.62 ± 0.27 nmol/mg of protein
- Nitrites, hippocampus [1, 5]: 5.27 ± 0.41 nmol/mg of protein
- Nitrites, hypothalamus [1, 5]: 6.87 ± 0.75 nmol/mg of protein
- Nitrites, midbrain [1, 5]: 5.99 ± 0.58 nmol/mg of protein
- Nitrites, striatum [1, 5]: 3.57 ± 0.42 nmol/mg of protein
- Activity of NOS, hippocampus [2, 6]: 3.09 ± 0.16 nmol/min/mg of protein
- Activity of NOS, hypothalamus [2, 6]: 5.45 ± 0.24 nmol/min/mg of protein
- Activity of NOS, midbrain [2, 6]: 2.60 ± 0.29 nmol/min/mg of protein
- Activity of NOS, striatum [2, 6]: 1.26 ± 0.08 nmol/min/mg of protein
- Activity of NOS, hippocampus [2, 7]: 2.33 ± 0.11 nmol/min/mg of protein
- Activity of NOS, hypothalamus [2, 7]: 5.47 ± 0.32 nmol/min/mg of protein
- Activity of NOS, midbrain [2, 7]: 2.03 ± 0.31 nmol/min/mg of protein
- Activity of NOS, striatum [2, 7]: 1.21 ± 0.10 nmol/min/mg of protein
- Authentic differences (ξ-square criterion) in appearance of signs of abstinence: <<Wet dog>> shakes [3, 8]: 0.7821
- Authentic differences (ξ-square criterion) in appearance of signs of abstinence: Aggression [3, 8]: 0.7921
- Authentic differences (ξ-square criterion) in appearance of signs of abstinence: Convulsions [3, 8]: 0.3456
- Authentic differences (ξ-square criterion) in appearance of signs of abstinence: Diarrhea [3, 8]: 0.0067
- Authentic differences (ξ-square criterion) in appearance of signs of abstinence: Dyspnea [3, 8]: 0.0567
- Authentic differences (ξ-square criterion) in appearance of signs of abstinence: Forelimb jogging [3, 8]: 0.6745
- Authentic differences (ξ-square criterion) in appearance of signs of abstinence: Grit with teeth [3, 8]: 0.2994
- Authentic differences (ξ-square criterion) in appearance of signs of abstinence: Mastication [3, 8]: 0.1975
- Authentic differences (ξ-square criterion) in appearance of signs of abstinence: Piloerection [3, 8]: 0.2567
- Authentic differences (ξ-square criterion) in appearance of signs of abstinence: Ptosis [3, 8]: 0.0105
- Authentic differences (ξ-square criterion) in appearance of signs of abstinence: Rhinorrhea [3, 8]: 0.2131
- Authentic differences (ξ-square criterion) in appearance of signs of abstinence: Squeak when touched [3, 8]: 0.1968

Compound: CN1CC[C@]23c4c5ccc(O)c4O[C@H]2[C@@H](O)C=C[C@H]3[C@H]1C5.Cl [morphine, morphine hydrochloride, reference compound]
- Nitrites, cerebellum ([1]; Group No. 2 (morphine)): 6.07 ± 0.42 nmol/mg of protein
- Nitrites, hippocampus ([1]; Group No. 2 (morphine)): 6.45 ± 0.69 nmol/mg of protein
- Nitrites, hypothalamus ([1]; Group No. 2 (morphine)): 4.62 ± 0.71 nmol/mg of protein
- Authentic differences (ξ-square criterion) in appearance of signs of abstinence: <<Wet dog>> shakes [3, 9]: 0.0002
- Authentic differences (ξ-square criterion) in appearance of signs of abstinence: Aggression [3, 9]: 0.5770
- Authentic differences (ξ-square criterion) in appearance of signs of abstinence: Convulsions [3, 9]: 0.0507
- Authentic differences (ξ-square criterion) in appearance of signs of abstinence: Diarrhea [3, 9]: 0.0075
- Authentic differences (ξ-square criterion) in appearance of signs of abstinence: Dyspnea [3, 9]: 0.0053
- Authentic differences (ξ-square criterion) in appearance of signs of abstinence: Forelimb jogging [3, 9]: 0.0180
- Authentic differences (ξ-square criterion) in appearance of signs of abstinence: Grit with teeth [3, 9]: 0.1266
- Authentic differences (ξ-square criterion) in appearance of signs of abstinence: Piloerection [3, 9]: 0.5770
- Authentic differences (ξ-square criterion) in appearance of signs of abstinence: Ptosis [3, 9]: 0.0053
- Authentic differences (ξ-square criterion) in appearance of signs of abstinence: Rhinorrhea [3, 9]: 0.2994
- Authentic differences (ξ-square criterion) in appearance of signs of abstinence: Squeak when touched [3, 9]: 0.0053
